Source: patent publication US10241113B2, “CD28 expression during lenalidomide immune modulation” (H. LEE MOFFITT CANCER CENTER AND RESEARCH INSTITUTE, INC., priority 2012, dated 2019)
Values belong to the molecule of their own block, whether it stands above or below them.

Columns and labels:
CD28 [1] = assay: Western blot for total CD28 protein expression; type: cell-based, human; details: anti-CD3 activation for 1, 2, 4, 8, 12, and 48 hours
CD28 [2] = assay: CD28 internalization and re-expression by flow cytometry after co-stimulation; type: cell-based, human
Procedure: (§1) For siRNA knockdown (KD), T-cells were transfected with siCD28 or control siRNA (Santa Cruz Biotechnology, Inc, Santa Cruz, Calif. USA) using Amaxa Nucleofection technology (Lonza, Basel, Switzerland). 10×10^6 purified T-cells were mixed with either control or CD28 siRNA in 100 μl Human T-cell nucleofection solution, nucleofected, and then placed in Lymphocye Media (Lonza Basel, Switzerland). Cells were rested 24 hours before being stimulated with either plate bound anti-CD3, or anti-CD3^+CD28, antibodies in the presence or absence of LEN. CD28 surface expression was measured via flow cytometry at 48 and 72 hours after stimulation, at the same time supernatant was collected for ELISA analysis. Supernatant from stimulation experiments was frozen at −80° C. for analysis via Human IL-2 ELISA kit (eBioscience, San Diego, Calif. USA).

murine T-cells = assay: IL-2 production by ELISA in murine T-cells; type: cell-based, B57BL6 mice
From the text: (§2) Peripheral blood from buffy coats of healthy donors was obtained from the Southwest Florida Blood Services, St. Petersburg, Fla., for use as controls and for the purification of T-cells. T-cells were isolated from the buffy coats using RosetteSep® Human CD3^+ T-cell Enrichment Cocktail (StemCell Technologies, Vancouver, BC Canada) according to the manufacturer's protocol. B57BL6 mice were maintained at an animal facility in accordance with the University of South Florida Committee on Animal Care. All mice were adult age 8-12 weeks, obtained from The Jackson Laboratory, and maintained in a pathogen-free environment at Moffitt Cancer Center. Mouse-specific antibodies for T-cell activation were purchased from eBioscience (San Diego, Calif.) and human-specific antibodies were purchased from BD Biosciences (San Jose, Calif. USA). To activate the T-cell receptor (TCR), T-cells were stimulated with plate-bound anti-CD3 antibody (1 μg/ml or indicated concentration) coated onto flat-bottomed polystyrene tissue culture plates overnight at 4° C. Purified T-cells (1×10^6/ml) were added to the coated 96-well plates in a 200 μl volume for 48 hours at 37° C. In some instances, 1.0 μg/ml anti-CD28 was added for co-stimulation.
(§3) Lenalidomide (Revlimid®) was provided by Celgene Corporation (Warren, N.J.). […] An equal volume of DMSO was used as a vehicle control.

CD28^+ T-cells = assay: IL-2 ELISA after CD28 siRNA knockdown; type: cell-based, human; details: average
Procedure: as §1

[3] = Storage of DMSO stock solutions; type: physicochemical; details: −20° C.
From the text: as §3

CD28 [4] = assay: CD28 surface expression by flow cytometry after anti-CD3 stimulation; type: cell-based, human; details: anti-CD3 alone, 72 hours
Procedure: Stimulation followed by measurement of CD28 surface expression was performed using anti-CD3 (10 μg/ml) alone or anti-CD3 (10 μg/ml) plus anti-CD28 (10 μg/ml) coupled 4.5 micron polystyrene polybeads (Polysciences, Inc, Warrington, Pa. USA). 1×10^5 beads were added to 2×10^5 cells in u-bottom 96-well plates, as previously described (Viola A, et al. Science 1999 283(5402):680-2). Cells were collected at 72 hours and 5 days, and CD28 surface expression was measured via flow cytometry on LSRII flow cytometer (BD Biosciences, San Jose, Calif. USA).

[5] = test system: CD8^+CD28^+ and CD8^+CD28^− T-cells; assay: BrdU proliferation of sorted CD8^+CD28^+ and CD8^+CD28^− T-cells; type: cell-based, human; details: 3 days, 10 μM LEN
Procedure: Proliferation was determined after in vitro activation by bromodeoxyuridine (BrdU) incorporation (BrdU flow kit, BD Biosciences, San Diego, Calif. USA). […] of BrdU was added during the last 45 min of T-cell stimulation. BrdU pulsed T-cells were harvested and stained with anti-CD4-PE and anti-CD8-PE-Cy-5 (BD Pharmingen, San Jose, Calif. USA). The cells were then fixed and permeabilized with BD Cytofix/Cytoperm buffer and incubated with DNase for 1 hour at 37° C. Cells were stained with anti-BrdU-FITC antibody before flow cytometry analysis on an LSRII flow cytometer (BD Biosciences, San Jose, Calif. USA). The percentage of BrdU positive cells from each population was analyzed using Flow-Jo Software (TreeStar Inc, Ashland, Oreg. USA.).
(§4) T-cells were purified from healthy donor buffy coats as previously described, and were stained with 4′,6-diamidino-2-phenylindole (DAPI) for viability, anti-CD8-APC-Cy7, CD4-PerCP-Cy5.5, and CD28-FITC antibodies (BD Pharmingen, San Jose, Calif.). Cells were then sorted into CD8^+CD28^+, CD8^+CD28^− populations via FACS Aria Cell Sorter (BD Pharmingen, San Jose, Calif.).

CD28 [6] = assay: CD28 mRNA expression by RT-qPCR; type: cell-based, human; details: anti-CD3 stimulation, 18 or 24 hours
Procedure: (§5) Total RNA was extracted from purified T-cells using the RNeasy Mini Kit (Qiagen, Chatsworth, Calif. USA). […] Relative target gene expression was measured by qRT-PCR using 18S rRNA expression as a reference gene. Expression levels of target mRNA and 18S rRNA were evaluated with Taqman Probes obtained from Applied Biosystems (Carlsbad, Calif.). All samples for both target genes (IL-2 or CD28) and 18S rRNA were measured in triplicate. Relative mRNA expression level for each sample was calculated using the ΔΔCt method (Pfaffl M W. Nucleic Acids Res 2001 May 1; 29(9):e45).

MDS patients = assay: Hematologic response of MDS patients versus pre-treatment CD28 expression; type: in vivo, human; details: 10 mg 21 of 28 days, 16 weeks, 7 NR and 4 R
Procedure: MDS patients (n=100) were consented at H. Lee Moffitt Cancer Center in Tampa, Fla. to participate in a peripheral blood collection protocol approved by the University of South Florida Institutional Review Board from 2004-2009. All patients signed University of South Florida Institutional Review Board approved informed consents for the collection of 40 ml of peripheral blood in heparin tubes. Samples were obtained from each patient at various times from 2004-2009 for immune monitoring studies and all cells were frozen in liquid nitrogen. Twenty-one of these patients had samples that were collected within 4 weeks prior to LEN treatment. LEN was administered at a dose of 10 mg for 21 out of a 28-day cycle for four cycles. All patients were evaluated for hematologic response after 16 weeks according to 2006 International Working Group Criteria (IWG). […]
Naïve and memory CD4 and CD8 T-cell subtypes in MDS patients and healthy donors were detected after surface staining with anti-CD3-PE-Cy7, anti-CD8-PerCP-Cy5.5, anti-CD45RA-FITC, anti-CD27-APC, anti-CD28-PE, and DAPI (all from BD Biosciences, San Jose, Calif. USA). […] Samples were run on an LSRII flow cytometer (BD Pharmingen) and populations were analyzed by FlowJo Software (Tree Star Inc., Ashland, Oreg. USA).

[7] = test system: pCREB binding to the IL-2 promoter; assay: Chromatin immunoprecipitation of pCREB at the IL-2 promoter; type: cell-based, human; details: anti-CD3 alone, 18 hours, 10 μM LEN
Procedure: Cells were isolated, fixed, lysed, and sonicated before chromatin-immunoprecipitation, as previously described (Smith M A, et al. J Biol Chem 2011 Mar. 11; 286(10):7893-904). Briefly, after stimulation and drug treatment, primary T-cells were treated with 1% formaldehyde for 10 min for cross-linking, followed by cell and nuclear lysis (50 mM Tris, pH 8.1, 10 mM EDTA, 1% SDS, 0.5 mM PMSF) and shearing. Chromatin was immunoprecipitated using 5 μg anti-phospho-CREB antibody (Millipore, Temecula, Calif. USA) and protein A/G beads (Santa Cruz Biotechnology Inc., Santa Cruz, Calif. USA). Immunoprecipitated chromatin was collected and washed sequentially with TSE buffer (20 mM Tris, pH 8.1, 50 mM NaCl, 2 mM EDTA, 0.1% SDS, 1.0% Triton X-100) and LiCl buffer (100 mM Tris, pH 8.1, 50 mM LiCl, 1% Nonidet P-40, 1% sodium deoxycholic acid, 1 mM EDTA). DNA was then eluted from the beads with 50 mM NaHCO3 containing 1% SDS and cross-linking reversed at 65° C. overnight followed by proteinase K treatment. DNA was then purified via QIAquick PCR purification kit (Qiagen, Germantown, Md. USA). For each sample, 4 μl DNA was amplified and measured using Sybr Green (Bio-Rad, Inc., Hercules, Calif. USA). Primers used to amplify the pCREB binding site-180 upstream of the transcription start site were: forward: 5′-[…]-3′ (SEQ ID NO:1) and reverse: 5′-[…]-3′ (SEQ ID NO:2).

CD8^+CD28^− T-cells = assay: IL-2 ELISA of sorted CD8^+CD28^− T-cells; type: cell-based, human; details: anti-CD3 stimulation, 3 days, 10 μM LEN
From the text: as §4, §1

purified human T-cells [8] = assay: IL-2 production by ELISA in stimulated T-cells; type: cell-based
From the text: as §2, §3
as §1, with “Supernatant from stimulation experiments was frozen at −80° C. for analysis via Human IL-2 ELISA kit (eBioscience, San Diego, Calif. USA).” left out

purified human T-cells [9] = assay: T-cell proliferation by BrdU incorporation, anti-CD3 stimulated; type: cell-based; details: increasing anti-CD3, 10 μM LEN
From the text: as §2, with “Purified T-cells (1×10^6/ml) were added to the coated 96-well plates in a 200 μl volume for 48 hours at 37° C. In some instances, 1.0 μg/ml anti-CD28 was added for co-stimulation.” left out
Proliferation was determined after in vitro activation by bromodeoxyuridine (BrdU) incorporation (BrdU flow kit, BD Biosciences, San Diego, Calif. USA). […] The percentage of BrdU positive cells from each population was analyzed using Flow-Jo Software (TreeStar Inc, Ashland, Oreg. USA.).

IL-2 gene = assay: IL-2 mRNA expression by RT-qPCR; type: cell-based, human; details: anti-CD3 alone without anti-CD28, 18 hours
From the text: as §2, with “To activate the T-cell receptor (TCR), T-cells were stimulated with plate-bound anti-CD3 antibody (1 μg/ml or indicated concentration) coated onto flat-bottomed polystyrene tissue culture plates overnight at 4° C. Purified T-cells (1×10^6/ml) were added to the coated 96-well plates in a 200 μl volume for 48 hours at 37° C. In some instances, 1.0 μg/ml anti-CD28 was added for co-stimulation.” left out
as §5

[10] = species comparison; cited from earlier work

stability of stock solutions on storage [3]: variable loss in activity
SMILES: Nc1cccc2c1CN(C1CCC(=O)NC1=O)C2=O (stereo not drawn) [LEN, Lenalidomide]
total protein expression of CD28 (CD28 [1]): did not significantly increase | CD28 re-expression (CD28 [2]; after anti-CD3 plus anti-CD28 stimulation): re-expression was slightly increased | ligand-induced CD28 internalization (CD28 [2]; anti-CD3 plus anti-CD28 stimulation): does not impair ligand-induced internalization | IL-2 production in TCR-stimulated murine T-cells (murine T-cells; anti-CD3 alone): failed to induce IL-2 production | anti-CD28 signaling response (IL-2) in murine T-cells (murine T-cells; anti-CD3 plus anti-CD28): failed to intensify the anti-CD28 signaling response | LEN-induced IL-2 release, fold increase (CD28^+ T-cells; control siRNA): 7.5 fold | LEN-induced IL-2 release, fold increase (CD28^+ T-cells; siRNA-CD28 knockdown): 4.9 fold | CD28 surface expression (MFI) compared to DMSO (CD28 [4]): amplifies this anti-CD3 response | proliferation of CD8^+CD28^+ T-cells ([5]; anti-CD3 stimulation alone): increased proliferation of CD8^+CD28^+ T-cells in a dose-dependent fashion | proliferation of CD8^+CD28^− T-cells compared to DMSO ([5]; anti-CD3 stimulation): displayed no response to LEN | CD28 mRNA (CD28 [6]): did not significantly increase | hematologic response (IWG) in relation to pre-treatment CD28^+ T-cells (MDS patients): correlation between accumulation of CD28^− T-cells and resistance to LEN | binding of pCREB to the IL-2 promoter compared to DMSO [7]: increases binding of pCREB to the IL-2 promoter | elaboration of IL-2 in CD8^+CD28^− T-cells (CD8^+CD28^− T-cells): completely abolished in CD8^+CD28^− T-cells with no response to LEN | IL-2 production with increasing concentrations of LEN (purified human T-cells [8]; fixed 5 μg/ml anti-CD3 alone): dose-dependency of IL-2 production | increase in IL-2 production (purified human T-cells [8]; human T-cells, anti-CD3 plus anti-CD28 co-stimulation, average, p<0.001): 6 fold | production of IL-2 compared to DMSO (purified human T-cells [8]; human T-cells, increasing anti-CD3, no anti-CD28, 10 μM LEN): increased the production of IL-2 | proliferating cells (% BrdU positive) compared to DMSO (purified human T-cells [9]): stimulated more cells to proliferate in a dose dependent fashion | IL-2 mRNA compared to DMSO (IL-2 gene): dose-dependent increase in IL-2 mRNA

SMILES: O=C1CCC(N2C(=O)c3ccccc3C2=O)C(=O)N1 (stereo not drawn) [Thalidomide]
teratogenic activity [10]: teratogenic activity only in humans, rabbits, chickens and zebrafish, but not in rodents
